Several values for one entry are separate records, joined by “and”; a condition that tells them apart may be missing. Identical values can stand only once.
Key:
HDAC6 = HDAC6 (Homo sapiens, UniProt Q9UBN7); assay: HDAC6 inhibition, 10-dose IC50 (Reaction Biology Corporation); type: biochemical; settings: 10‐dose IC50 mode, threefold serial dilutions starting at 1 μM
HDAC1 = HDAC1 (Homo sapiens, UniProt Q13547); assay: Selectivity profile, single dose 0.5 µM, HDAC1; type: biochemical; settings: remaining enzyme activity; single‐dose duplicate mode at 0.5 μM; read-out: Enzyme % activity (relative to DMSO controls) at 0.5 µM, HDAC1
HDAC1, sequence (Q13547 whole entry, canonical isoform): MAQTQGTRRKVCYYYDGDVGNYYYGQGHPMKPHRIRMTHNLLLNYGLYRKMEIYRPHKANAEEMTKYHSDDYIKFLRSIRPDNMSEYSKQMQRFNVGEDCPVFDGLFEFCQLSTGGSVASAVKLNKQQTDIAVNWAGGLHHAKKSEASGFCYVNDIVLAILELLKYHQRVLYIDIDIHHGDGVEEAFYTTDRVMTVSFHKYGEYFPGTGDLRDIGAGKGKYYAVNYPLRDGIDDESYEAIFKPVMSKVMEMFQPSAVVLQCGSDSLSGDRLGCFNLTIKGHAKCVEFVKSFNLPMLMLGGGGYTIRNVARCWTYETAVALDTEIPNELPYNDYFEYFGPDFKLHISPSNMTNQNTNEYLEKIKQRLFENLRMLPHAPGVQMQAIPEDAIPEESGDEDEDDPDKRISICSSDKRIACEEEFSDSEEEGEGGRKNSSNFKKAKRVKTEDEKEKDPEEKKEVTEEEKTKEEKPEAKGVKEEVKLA
Experimental: (§1) The inhibitory profiles of 5b and 5f were evaluated against selected HDAC isoforms (HDAC1, HDAC3, HDAC4, HDAC8, and HDAC10) and PI3K isoforms (PI3Kδ, PI3Kγ, and PI3Kβ) at a fixed concentration of 0.5 µM (Table 3). […] While we explored the phenyl ring in the linker region to achieve selectivity for the HDAC6 isoform, we still observed HDAC class I inhibition. […] It is important to highlight that PI3Kδ is mainly expressed in hematopoietic system and plays roles in leukocyte signaling, T‐cell activation, and immune cell trafficking. FDA‐approved drug idelalisib is a selective PI3Kδ inhibitor in B‐cell malignancies; however, this drug is also related to disruption of the immune system, which can lead to immune manifestations, such as infections. In addition, while isoform‐selective PI3K inhibitors are well tolerated, pan‐inhibition of PI3K is less expected that compensatory mechanisms by the action of other PI3Ks can take place. Thus, a more balanced profile of PI3K inhibition can lead to an overall lack of toxicity of PI3K inhibitors.

HDAC4 = HDAC4 (Homo sapiens, UniProt P56524); assay: Selectivity profile, single dose 0.5 µM, HDAC4; type: biochemical; settings: remaining enzyme activity; single‐dose duplicate mode at 0.5 μM; read-out: Enzyme % activity (relative to DMSO controls) at 0.5 µM, HDAC4
HDAC4, sequence (P56524 whole entry): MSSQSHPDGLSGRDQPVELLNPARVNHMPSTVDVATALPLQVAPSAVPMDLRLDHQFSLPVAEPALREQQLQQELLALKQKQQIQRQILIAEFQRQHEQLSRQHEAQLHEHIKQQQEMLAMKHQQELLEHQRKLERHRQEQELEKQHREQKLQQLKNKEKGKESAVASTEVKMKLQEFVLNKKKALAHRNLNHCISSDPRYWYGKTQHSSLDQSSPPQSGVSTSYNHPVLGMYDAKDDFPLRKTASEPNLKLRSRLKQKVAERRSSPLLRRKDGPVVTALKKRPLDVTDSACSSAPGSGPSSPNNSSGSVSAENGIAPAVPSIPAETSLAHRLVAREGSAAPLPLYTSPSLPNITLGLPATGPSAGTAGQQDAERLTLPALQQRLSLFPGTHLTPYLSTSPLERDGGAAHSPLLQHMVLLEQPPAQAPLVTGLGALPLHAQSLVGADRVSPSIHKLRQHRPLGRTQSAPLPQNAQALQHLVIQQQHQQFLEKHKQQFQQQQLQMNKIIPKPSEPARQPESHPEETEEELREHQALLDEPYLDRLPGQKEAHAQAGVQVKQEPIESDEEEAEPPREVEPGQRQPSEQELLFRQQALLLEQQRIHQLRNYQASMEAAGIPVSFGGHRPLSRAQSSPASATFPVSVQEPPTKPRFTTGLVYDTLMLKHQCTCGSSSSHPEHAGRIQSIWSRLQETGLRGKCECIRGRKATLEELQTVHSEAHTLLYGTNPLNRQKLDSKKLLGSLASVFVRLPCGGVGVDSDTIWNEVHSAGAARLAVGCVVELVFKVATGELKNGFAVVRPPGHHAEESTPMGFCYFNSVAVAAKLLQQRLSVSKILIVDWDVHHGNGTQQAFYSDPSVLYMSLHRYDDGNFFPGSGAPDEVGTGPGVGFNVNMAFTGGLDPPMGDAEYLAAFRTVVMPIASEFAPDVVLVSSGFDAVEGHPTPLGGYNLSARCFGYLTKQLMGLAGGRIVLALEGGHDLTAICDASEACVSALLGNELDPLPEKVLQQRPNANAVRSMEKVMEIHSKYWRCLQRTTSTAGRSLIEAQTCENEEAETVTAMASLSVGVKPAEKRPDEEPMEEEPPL
Experimental: as §1

PI3Kγ = PI3Kγ (Homo sapiens, UniProt P48736); assay: Selectivity profile, single dose 0.5 µM, PI3Kγ; type: biochemical; settings: remaining enzyme activity; single‐dose duplicate mode at 0.5 μM; read-out: Enzyme % activity (relative to DMSO controls) at 0.5 µM, PI3Kγ
PI3Kγ, sequence (P48736 whole entry): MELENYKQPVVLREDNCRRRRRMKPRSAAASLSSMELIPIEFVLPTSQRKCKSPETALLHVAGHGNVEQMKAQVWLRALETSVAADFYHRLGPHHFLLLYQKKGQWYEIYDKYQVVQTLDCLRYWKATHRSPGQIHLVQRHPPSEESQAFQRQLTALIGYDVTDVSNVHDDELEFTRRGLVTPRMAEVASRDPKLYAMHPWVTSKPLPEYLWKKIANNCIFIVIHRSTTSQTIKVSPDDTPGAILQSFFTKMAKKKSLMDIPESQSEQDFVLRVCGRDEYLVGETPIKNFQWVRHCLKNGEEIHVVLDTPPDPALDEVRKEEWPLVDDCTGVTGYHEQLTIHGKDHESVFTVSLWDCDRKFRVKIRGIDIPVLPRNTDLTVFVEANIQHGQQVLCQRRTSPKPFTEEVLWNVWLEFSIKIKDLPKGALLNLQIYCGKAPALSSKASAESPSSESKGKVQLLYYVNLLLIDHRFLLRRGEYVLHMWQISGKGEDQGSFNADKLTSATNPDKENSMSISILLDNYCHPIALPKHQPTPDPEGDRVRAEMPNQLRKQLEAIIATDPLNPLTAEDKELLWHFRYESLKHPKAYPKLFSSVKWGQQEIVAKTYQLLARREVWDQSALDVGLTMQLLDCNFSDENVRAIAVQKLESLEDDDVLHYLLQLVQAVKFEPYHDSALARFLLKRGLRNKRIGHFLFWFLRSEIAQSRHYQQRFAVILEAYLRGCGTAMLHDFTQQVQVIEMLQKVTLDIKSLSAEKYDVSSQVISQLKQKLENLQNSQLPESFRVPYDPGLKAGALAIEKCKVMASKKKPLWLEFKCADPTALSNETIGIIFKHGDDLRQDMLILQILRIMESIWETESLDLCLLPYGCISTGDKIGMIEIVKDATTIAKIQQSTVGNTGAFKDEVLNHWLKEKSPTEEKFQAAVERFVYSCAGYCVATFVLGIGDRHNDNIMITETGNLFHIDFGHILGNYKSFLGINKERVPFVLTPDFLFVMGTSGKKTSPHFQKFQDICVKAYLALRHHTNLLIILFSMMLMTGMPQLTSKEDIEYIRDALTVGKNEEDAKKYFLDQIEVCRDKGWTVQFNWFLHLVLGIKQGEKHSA
Experimental: as §1

[1] = tested on: HDAC6 (acetylated α‐tubulin); assay: Western blot, acetylated α-tubulin in treated cells; type: cell-based; settings: LY2, JIMT1, MDA‐MB‐231 cells, 24 h; seen at 3 µM, further increasing at 10 µM
Experimental: (§2) FIGURE 4 Cell‐based evaluation of compounds 5a– 5f. Dose‐dependent effects of compound treatment (5a‐5f) on breast cancer cell viability across JIMT1 (A), MDA‐MB‐231 (B), and LY2 (C). Cell‐based evaluation of HDAC and PI3K inhibition by compounds 5b and 5f by Western blot. JIMT1 cells were treated for 24 h with compounds 5b (D) and 5f (E) at the concentrations of 1, 3, and 10 µM or with vehicle control (0.1% DMSO). Protein expression levels were analyzed by western blot using antibodies against acetylated α‐tubulin, acetyl H3 (H3K9Ac and H3K14Ac), phospho‐AKT (p‐AKT), and total AKT. GAPDH served as a loading control.
(§3) To investigate if 5b and 5f were acting as multitarget inhibitors, we evaluated the modulation of HDAC6 and PI3K signaling pathways by western blot analysis (Figure 4D,E). […]
(§4) Total protein samples were extracted from treated cells using a lysis buffer containing 0.1% IGEPAL CA‐630 (I8896, Merck), 0.5% deoxycholic acid (D2510, Merck), and 0.1% SDS (L3771, Merck), freshly supplemented with protease and phosphatase inhibitor cocktail (78442, Thermo Fisher Scientific). Protein concentrations were quantified using the Pierce BCA Protein Assay Kit (23227, Thermo Fisher Scientific) according to the manufacturer's instructions. […] Chemiluminescence signals were detected using the Amersham Imager 680 Imaging System. […]

class I HDAC (acetyl H3) = assay: Western blot, acetyl H3 in treated cells; type: cell-based; settings: LY2, JIMT1, MDA‐MB‐231 cells, 24 h; seen at 10 µM
Experimental: as §2, §3, §4

[2] = tested on: PI3K pathway (phosphorylation of AKT); assay: Western blot, phospho-AKT in treated cells; type: cell-based; settings: LY2, JIMT1, MDA‐MB‐231 cells, 24 h; seen at 10 µM
Experimental: as §2, §3, §4

HDAC6, sequence (Q9UBN7 whole entry): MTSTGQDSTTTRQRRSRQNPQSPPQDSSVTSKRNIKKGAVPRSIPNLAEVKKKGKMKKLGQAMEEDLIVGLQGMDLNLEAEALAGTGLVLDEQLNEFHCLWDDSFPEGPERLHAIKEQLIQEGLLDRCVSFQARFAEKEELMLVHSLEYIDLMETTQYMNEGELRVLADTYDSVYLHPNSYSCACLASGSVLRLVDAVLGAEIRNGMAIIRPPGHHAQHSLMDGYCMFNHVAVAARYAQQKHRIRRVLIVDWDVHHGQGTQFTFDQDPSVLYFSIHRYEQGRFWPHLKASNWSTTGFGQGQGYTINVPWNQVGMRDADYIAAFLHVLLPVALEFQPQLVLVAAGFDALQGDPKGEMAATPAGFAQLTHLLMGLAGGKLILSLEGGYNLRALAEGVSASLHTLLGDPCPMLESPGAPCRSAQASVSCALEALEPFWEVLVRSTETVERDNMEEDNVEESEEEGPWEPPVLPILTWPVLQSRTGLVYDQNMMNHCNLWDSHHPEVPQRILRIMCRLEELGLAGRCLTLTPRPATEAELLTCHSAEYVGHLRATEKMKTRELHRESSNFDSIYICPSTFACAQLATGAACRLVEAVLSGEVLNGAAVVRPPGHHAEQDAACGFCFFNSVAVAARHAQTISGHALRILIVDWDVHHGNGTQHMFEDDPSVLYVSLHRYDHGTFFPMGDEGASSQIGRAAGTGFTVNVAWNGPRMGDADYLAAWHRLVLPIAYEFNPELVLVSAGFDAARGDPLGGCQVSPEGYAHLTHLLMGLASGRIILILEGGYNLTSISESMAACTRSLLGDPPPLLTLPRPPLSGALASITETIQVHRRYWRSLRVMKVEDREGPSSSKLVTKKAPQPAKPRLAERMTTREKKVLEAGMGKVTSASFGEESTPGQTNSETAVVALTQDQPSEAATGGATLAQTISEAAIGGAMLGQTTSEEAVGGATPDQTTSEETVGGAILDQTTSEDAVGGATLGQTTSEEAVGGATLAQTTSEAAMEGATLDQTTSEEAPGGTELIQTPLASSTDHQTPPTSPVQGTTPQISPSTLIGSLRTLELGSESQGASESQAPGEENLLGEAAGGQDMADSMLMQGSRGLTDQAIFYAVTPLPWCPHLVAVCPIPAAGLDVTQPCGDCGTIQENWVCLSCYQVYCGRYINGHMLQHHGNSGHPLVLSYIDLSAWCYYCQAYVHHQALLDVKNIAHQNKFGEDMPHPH

| SMILES | IC50 (HDAC6) | remaining activity at 0.5 µM (HDAC1) [%] | remaining activity at 0.5 µM (HDAC4) [%] | remaining activity at 0.5 µM (PI3Kγ) [%] | Acetylated α‐tubulin level, western blot [1] | Acetylation of H3, western blot (class I HDAC (acetyl H3)) | Phosphorylation of AKT, western blot [2] |
| --- | --- | --- | --- | --- | --- | --- | --- |
| COc1ccc(-c2nc(NCc3ccc(C(=O)NO)cc3)nc(N3CCOCC3)n2)cn1 [Compound 5f, N‐Hydroxy‐4‐(((4‐(6‐Methoxypyridin‐3‐yl)‐6‐Morpholino‐1,3,5‐Triazin‐2‐yl)Amino)Methyl)Benzamide] | 6.02 nM and 6 nM | 35.7 | 98.4 | 77.7 | accumulation of acetylated α‐tubulin | increased levels of acetylation of H3 | decreased phosphorylation of AKT |
| O=C(NO)c1ccc(CNc2nc(-c3cccc(O)c3)nc(N3CCOCC3)n2)cc1 [Compound 5b, N‐Hydroxy‐4‐(((4‐(3‐Hydroxyphenyl)‐6‐Morpholino‐1,3,5‐Triazin‐2‐yl)Amino)Methyl)Benzamide] | 2.33 nM and 2.3 nM | 35.9 | 89 | 29.2 | accumulation of acetylated α‐tubulin | increased levels of acetylation of H3 | decreased phosphorylation of AKT |
